According to PMC11089204 (Frontiers in Pharmacology, 2024):

Columns and labels:
mouse 5-HT2A receptor = biological target: mouse 5-HT2A receptor; set-up: method as in Sherwood et al., 2020; conditions: Gq-dependent calcium flux, nearly full agonist; ref Sherwood et al., 2020; cited from earlier work
mice = system: mice; set-up: method as in Sherwood et al., 2020; conditions: ref Sherwood et al., 2020; cited from earlier work
recombinant CYP2D6 = biological target: T1, recombinant CYP2D6 (Homo sapiens, UniProt P10635); assay: Incubation with recombinant CYP2D6 enzymes; type: in vitro ADME; conditions: rec. CYP2D6 with CYP2D6 inhibitor quinidine
T1 construct: purchased Corning Life Sciences B.V
T1 sequence (P10635 whole entry): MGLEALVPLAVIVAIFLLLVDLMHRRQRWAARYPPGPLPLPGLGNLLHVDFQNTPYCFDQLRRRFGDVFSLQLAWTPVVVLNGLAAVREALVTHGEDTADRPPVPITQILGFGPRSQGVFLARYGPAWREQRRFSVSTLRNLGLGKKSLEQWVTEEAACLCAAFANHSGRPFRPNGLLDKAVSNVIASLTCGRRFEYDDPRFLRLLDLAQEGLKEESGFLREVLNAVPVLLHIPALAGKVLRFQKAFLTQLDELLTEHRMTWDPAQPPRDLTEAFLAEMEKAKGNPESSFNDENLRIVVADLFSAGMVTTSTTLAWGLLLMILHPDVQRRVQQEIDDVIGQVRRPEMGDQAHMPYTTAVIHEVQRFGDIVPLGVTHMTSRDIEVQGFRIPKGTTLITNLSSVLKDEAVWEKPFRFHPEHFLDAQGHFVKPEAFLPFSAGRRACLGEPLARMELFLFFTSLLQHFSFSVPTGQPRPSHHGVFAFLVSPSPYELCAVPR
Description: Corning UltraPool human liver microsomes (HLM) 150 (20 mg/mL), human intestinal microsomes (HIM) pool (10 mg/mL) as well as recombinant human CYP enzymes (with P450 oxidoreductase, OR) including CYP1A2+OR (0.5 nmol), CYP2B6+OR (0.5 nmol), CYP2C8+OR (1.0 nmol), CYP2C9*1+OR (1 nmol), CYP2C19+OR (0.5 nmol), CYP2D6*1+OR (0.5 nmol), CYP2E1+OR + cytochrome b5 (1 nmol), CYP3A4+OR + cytochrome b5 (0.5 nmol), MAO-A (5 mg/mL), MAO-B (5 mg/mL), and UGT1A10 (5 mg/mL) were purchased from Corning Life Sciences B.V (Amsterdam, Netherlands). All microsomes and recombinant enzyme solutions were aliquoted and stored at −80 °C until further use.
The total volume of the reaction mixture was 500 μL. […] Samples were either directly analyzed by liquid chromatography tandem mass spectrometry (LC-MS/MS) or briefly stored at −20°C until analysis.

[1] = Metabolites in human plasma after oral psilocybin (reanalysed study samples); conditions: 30 mg psilocybin p.o., n = 5
[2] = Pharmacokinetics and metabolites in mouse plasma after oral psilocybin; type: in vivo, C57BL/6J mice; conditions: male, C57BL/6J, po; mouse plasma, 3 mg/kg psilocybin p.o., n = 5; read-out: tmax (mean ± SD)
Description: C57BL/6J adult male mice (Janvier, Le Genest-Saint-Isle, France) were maintained in littermate pairs in standard cages (containing sawdust, a sleeping chamber, tissue paper, and a wood stick) with water and pellet food available ad libitium. The colony room was on a reversed light-dark cycle (dark phase 07:00 to 19:00) with temperature at 22°C and humidity at 50–60%. A total of 10 mice were dosed orally with either 3 mg/kg bodyweight psilocybin (n = 5) or saline solution (n = 5). Dosing and blood sampling were conducted between 09:00 and 13:00. The mouse was placed in a plastic restrainer with the tail protruding through a hole in the end of the tube. The tail was immersed in warm water for 1 min for vasodilation and then a small incision was made on the lateral tail surface near the distal tip. 50 μL of blood was massaged gently into an EDTA-coated capillary blood tube (Mircovette, Sarstedt, Nümbrecht, Germany). The first (baseline) blood sample was collected directly before compound administration via oral gavage and the mouse was then returned to the home cage. Further blood samples were collected at 15, 30, 60, and 120 min post-treatment. Each sample was drawn from the same incision site, with mice maintained in the home cage in the intervening periods. The blood samples were stored on ice and centrifuged for 10 min at 780 × g and 4°C. Subsequently, the plasma was transferred into cryotubes (Protein LoBind, Eppendorf) and stored at −80 °C until analysis. All procedures were conducted under a permit for animal experimentation (ZH038/2022) issued by the Veterinary Office Zurich in accordance with the Animal Protection Act (1978) of Switzerland. The use of psilocybin was authorized by the Federal Office of Public Health (FOPH).
Pharmacokinetic parameters were calculated using Phoenix WinNonlin software (version 8.1.0, Certara, Princeton, USA). The elimination half-life (t1/2, min) was assessed as t1/2 = ln(2)/λ, while the elimination constant was calculated by linear regression in the terminal elimination phase. The maximal plasma concentration (Cmax, ng/mL) and the time to reach this concentration (tmax, h) were direct read-outs of the graphical plots.

With CNCCc1c[nH]c2cccc(O)c12 [norpsilocin, N-methyl-4-hydroxytryptamine] as the compound, how does the EC50 (mouse 5-HT2A receptor) read?
Its EC50 is under 10 nM.

What about the “psychoactive properties in head-twitch response” value (mice) of the same compound?
The value was “did not show any psychoactive properties”.

What about the “metabolite formation on co-incubation with quinidine” value (recombinant CYP2D6) of the same compound?
Its value is “reduced and delayed formation”.

And the “detection in human plasma” value [1]?
Its value is “neither norpsilocin nor 4-HTP was detected”.

And the Tmax [2]?
The Tmax was about 15 min.
